Source: paper PMC5061470, “Promiscuous targeting of bromodomains by bromosporine identifies BET proteins as master regulators of primary transcription response in leukemia” (Science Advances, 2016)
“Also recorded” adds a separate entry of the source.

Assays:
[1] = molecular target: T1, BAZ2B (Homo sapiens, UniProt Q9UIF8); type: binding; conditions: pH 7.5
T1 construct: Human BRDs were subcloned into bacteria-expressing vectors; made in house

[2] = molecular target: BRPF1B (Homo sapiens, UniProt P55201); experiment: biochemical; type: binding
[3] = molecular target: T2, PCAF (Homo sapiens, UniProt Q92831); type: binding
T2 sequence (Q92831 723-827 limits assumed): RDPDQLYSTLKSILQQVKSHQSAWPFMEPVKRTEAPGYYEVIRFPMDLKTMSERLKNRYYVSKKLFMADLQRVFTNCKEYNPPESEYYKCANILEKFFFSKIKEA

[4] = molecular target: SMARCA4 (Homo sapiens, UniProt P51532); type: binding
[5] = molecular target: T3, TAF1(2) (Homo sapiens, UniProt P21675); type: binding
T3 construct: Human BRDs were subcloned into bacteria-expressing vectors; made in house; host or cells: bacteria
T3 sequence (P21675 1519-1628 limits assumed): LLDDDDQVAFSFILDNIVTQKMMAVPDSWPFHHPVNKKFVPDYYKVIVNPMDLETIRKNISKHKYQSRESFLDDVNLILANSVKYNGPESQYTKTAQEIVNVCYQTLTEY

[6] = molecular target: T4, TIF1A (Homo sapiens, UniProt O15164); type: binding
T4 construct: Human BRDs were subcloned into bacteria-expressing vectors; made in house; host or cells: bacteria
T4 sequence (O15164 899-1004 limits assumed): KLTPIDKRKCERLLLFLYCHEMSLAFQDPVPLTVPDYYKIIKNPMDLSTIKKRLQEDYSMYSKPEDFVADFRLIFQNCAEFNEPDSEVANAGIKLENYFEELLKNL

[7] = test system: MV4;11; experiment: cells; type: cell-based, human; conditions: Homo sapiens, MV4-11, 72 h, read-out: IC50, cell proliferation
[8] = test system: OCI-AML3; experiment: cells; type: cell-based, human; conditions: Homo sapiens, OCI-AML-3, 72 h, read-out: IC50, cell proliferation
[9] = test system: K562, KASUMI-1, MV4;11, and OCI-AML3; type: cell-based, human
[10] = molecular target: alpha 2A (h) (Homo sapiens, UniProt P08913); experiment: biochemical; conditions: read-out: % Inhibition of Control Specific Binding
[11] = molecular target: GABAA1 (h) (alpha 1,beta 2,gamma 2) (Homo sapiens, UniProt P14867+P47870); experiment: biochemical; type: binding; conditions: read-out: % Inhibition of Control Specific Binding
[12] = test system: kainate; type: binding
[13] = molecular target: glycine (strychnine-insensitive) (Rattus norvegicus, UniProt P35439); experiment: biochemical; conditions: read-out: % Inhibition of Control Specific Binding
[14] = test system: TNF-alpha (h); experiment: CEREP binding, agonist radioligand; parameters: species or system human
[15] = molecular target: H4 (h) (Homo sapiens, UniProt Q9H3N8); experiment: biochemical; type: binding; conditions: read-out: % Inhibition of Control Specific Binding
[16] = molecular target: CysLT1 (LTD4) (h) (Homo sapiens, UniProt Q9Y271); experiment: biochemical; conditions: read-out: % Inhibition of Control Specific Binding
[17] = molecular target: MCH1 (h) (Homo sapiens, UniProt Q99705); experiment: biochemical; conditions: read-out: % Inhibition of Control Specific Binding
[18] = molecular target: MC3 (h) (Homo sapiens, UniProt P41968); experiment: biochemical; conditions: read-out: % Inhibition of Control Specific Binding
[19] = molecular target: NK2 (h) (Homo sapiens, UniProt P21452); experiment: biochemical; conditions: read-out: % Inhibition of Control Specific Binding
[20] = molecular target: NOP (ORL1) (h) (Homo sapiens, UniProt P41146); experiment: biochemical; conditions: read-out: % Inhibition of Control Specific Binding
[21] = molecular target: PAF (h) (Homo sapiens, UniProt P25105); experiment: biochemical; type: binding; conditions: read-out: % Inhibition of Control Specific Binding
[22] = test system: PCP; type: binding
[23] = molecular target: 5-HT4e (h) (Homo sapiens, UniProt Q13639); experiment: biochemical; conditions: read-out: % Inhibition of Control Specific Binding
[24] = molecular target: Ca2+ channel (N) (Rattus norvegicus, UniProt Q02294); experiment: biochemical; type: binding; conditions: read-out: % Inhibition of Control Specific Binding
[25] = molecular target: 5-HT transporter (h) (Homo sapiens, UniProt P31645); experiment: biochemical; conditions: read-out: % Inhibition of Control Specific Binding
[26] = molecular target: BRD2(1) (Homo sapiens, UniProt P25440)
[27] = molecular target: beta 1 (h) (Homo sapiens, UniProt P08588); experiment: biochemical; conditions: read-out: % Inhibition of Control Specific Binding
[28] = molecular target: M3 (h) (Homo sapiens, UniProt P20309); experiment: biochemical; conditions: read-out: % Inhibition of Control Specific Binding
[29] = molecular target: 5-HT3 (h) (Homo sapiens, UniProt P46098); experiment: biochemical; conditions: read-out: % Inhibition of Control Specific Binding
[30] = molecular target: 5-HT6 (h) (Homo sapiens, UniProt P50406); experiment: biochemical; conditions: read-out: % Inhibition of Control Specific Binding
[31] = molecular target: 5-HT7 (h) (Homo sapiens, UniProt P34969); experiment: biochemical; conditions: read-out: % Inhibition of Control Specific Binding
[32] = molecular target: norepinephrine transporter (h) (Homo sapiens, UniProt P23975); experiment: biochemical; conditions: read-out: % Inhibition of Control Specific Binding

Chain of SMARCA4 (P51532 1453-1564 limits assumed): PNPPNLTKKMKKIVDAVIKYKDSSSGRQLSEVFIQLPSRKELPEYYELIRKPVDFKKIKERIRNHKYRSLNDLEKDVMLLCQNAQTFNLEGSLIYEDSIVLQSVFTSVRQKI
Chain of BRD2(1) (P25440 74-180 limits assumed): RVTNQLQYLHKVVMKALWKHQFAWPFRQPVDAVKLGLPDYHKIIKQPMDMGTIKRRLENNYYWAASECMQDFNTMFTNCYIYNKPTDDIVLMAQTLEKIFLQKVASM
Chain of BRPF1B (P55201 628-732): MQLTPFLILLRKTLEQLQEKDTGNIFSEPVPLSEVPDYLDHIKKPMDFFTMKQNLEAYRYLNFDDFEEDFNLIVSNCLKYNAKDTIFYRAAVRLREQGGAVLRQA
Chain of GABAA1 (h) (alpha 1,beta 2,gamma 2) (P47870 25-512): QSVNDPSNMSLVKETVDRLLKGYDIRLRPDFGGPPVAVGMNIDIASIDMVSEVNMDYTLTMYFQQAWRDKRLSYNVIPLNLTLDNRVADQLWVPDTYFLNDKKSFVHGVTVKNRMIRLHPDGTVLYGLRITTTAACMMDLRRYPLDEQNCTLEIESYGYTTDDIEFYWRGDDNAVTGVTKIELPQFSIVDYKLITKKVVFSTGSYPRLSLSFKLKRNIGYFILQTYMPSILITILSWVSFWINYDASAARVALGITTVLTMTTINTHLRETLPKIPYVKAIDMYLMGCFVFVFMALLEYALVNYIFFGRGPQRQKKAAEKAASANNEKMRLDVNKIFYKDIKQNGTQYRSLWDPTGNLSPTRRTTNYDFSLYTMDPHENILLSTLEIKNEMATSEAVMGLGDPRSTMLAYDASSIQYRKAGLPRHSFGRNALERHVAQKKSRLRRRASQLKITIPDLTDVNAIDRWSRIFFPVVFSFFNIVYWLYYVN
Chain of GABAA1 (h) (alpha 1,beta 2,gamma 2) (P14867 28-456): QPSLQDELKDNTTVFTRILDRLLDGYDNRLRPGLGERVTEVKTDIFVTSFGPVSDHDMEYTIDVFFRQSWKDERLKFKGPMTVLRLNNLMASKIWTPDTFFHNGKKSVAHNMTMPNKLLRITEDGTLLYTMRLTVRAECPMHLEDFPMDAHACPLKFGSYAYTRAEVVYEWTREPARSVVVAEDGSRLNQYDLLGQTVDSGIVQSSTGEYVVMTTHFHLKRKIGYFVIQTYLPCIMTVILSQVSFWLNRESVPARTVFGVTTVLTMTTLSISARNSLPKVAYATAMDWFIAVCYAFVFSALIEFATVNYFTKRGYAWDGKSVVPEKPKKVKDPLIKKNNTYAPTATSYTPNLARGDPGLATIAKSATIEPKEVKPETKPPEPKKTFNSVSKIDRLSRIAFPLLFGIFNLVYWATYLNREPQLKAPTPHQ
Chain of GABAA1 (h) (alpha 1,beta 2,gamma 2) (P18507 40-475, further chain): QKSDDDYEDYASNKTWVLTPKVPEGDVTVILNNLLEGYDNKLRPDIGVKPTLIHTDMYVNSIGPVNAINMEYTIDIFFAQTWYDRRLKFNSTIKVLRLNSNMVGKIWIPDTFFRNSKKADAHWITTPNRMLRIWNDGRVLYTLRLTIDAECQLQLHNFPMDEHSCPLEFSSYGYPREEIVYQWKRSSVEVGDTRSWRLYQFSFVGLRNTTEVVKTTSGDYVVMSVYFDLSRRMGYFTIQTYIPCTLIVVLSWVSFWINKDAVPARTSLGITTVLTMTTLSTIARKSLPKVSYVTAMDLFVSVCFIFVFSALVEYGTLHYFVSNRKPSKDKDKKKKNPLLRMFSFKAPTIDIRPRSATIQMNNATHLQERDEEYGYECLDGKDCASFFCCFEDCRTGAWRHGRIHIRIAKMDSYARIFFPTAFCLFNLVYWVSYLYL
T1 sequence (Q9UIF8 2060-2164 limits assumed): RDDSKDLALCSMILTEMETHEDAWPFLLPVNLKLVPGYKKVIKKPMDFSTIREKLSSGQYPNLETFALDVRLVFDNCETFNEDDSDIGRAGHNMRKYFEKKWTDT
Chain of PAF (h) (P25105 whole entry): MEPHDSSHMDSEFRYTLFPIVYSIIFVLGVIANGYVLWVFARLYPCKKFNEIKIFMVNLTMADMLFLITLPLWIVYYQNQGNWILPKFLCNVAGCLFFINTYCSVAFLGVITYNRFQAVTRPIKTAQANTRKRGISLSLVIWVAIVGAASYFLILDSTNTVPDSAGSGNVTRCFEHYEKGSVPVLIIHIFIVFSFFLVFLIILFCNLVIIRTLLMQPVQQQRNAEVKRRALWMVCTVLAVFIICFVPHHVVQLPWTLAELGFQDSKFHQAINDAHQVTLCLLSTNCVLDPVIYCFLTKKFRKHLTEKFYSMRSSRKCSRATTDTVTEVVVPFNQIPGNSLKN
Chain of NK2 (h) (P21452 whole entry): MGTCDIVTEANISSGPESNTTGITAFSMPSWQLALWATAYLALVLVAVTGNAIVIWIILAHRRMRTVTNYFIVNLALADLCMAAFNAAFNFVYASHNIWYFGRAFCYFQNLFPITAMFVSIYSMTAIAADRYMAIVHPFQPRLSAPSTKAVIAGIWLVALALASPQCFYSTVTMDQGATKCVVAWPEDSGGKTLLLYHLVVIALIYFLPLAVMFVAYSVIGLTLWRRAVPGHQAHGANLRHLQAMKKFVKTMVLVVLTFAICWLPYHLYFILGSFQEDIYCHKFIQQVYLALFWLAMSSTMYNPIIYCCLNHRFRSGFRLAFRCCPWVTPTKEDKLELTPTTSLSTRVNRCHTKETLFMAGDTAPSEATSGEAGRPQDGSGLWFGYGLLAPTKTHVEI
Chain of beta 1 (h) (P08588 whole entry): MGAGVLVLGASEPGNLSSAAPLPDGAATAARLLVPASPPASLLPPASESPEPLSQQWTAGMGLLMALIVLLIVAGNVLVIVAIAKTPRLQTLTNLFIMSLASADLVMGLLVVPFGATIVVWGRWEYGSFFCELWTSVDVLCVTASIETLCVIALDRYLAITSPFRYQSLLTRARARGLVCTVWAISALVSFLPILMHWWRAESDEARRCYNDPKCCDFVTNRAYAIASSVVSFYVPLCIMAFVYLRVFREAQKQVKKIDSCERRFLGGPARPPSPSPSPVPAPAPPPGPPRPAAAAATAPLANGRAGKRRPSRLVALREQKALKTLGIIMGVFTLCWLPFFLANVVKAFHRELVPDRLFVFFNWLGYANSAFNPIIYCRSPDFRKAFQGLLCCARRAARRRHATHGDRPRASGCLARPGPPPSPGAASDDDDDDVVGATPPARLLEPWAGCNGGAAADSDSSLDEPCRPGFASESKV
Chain of 5-HT transporter (h) (P31645 whole entry): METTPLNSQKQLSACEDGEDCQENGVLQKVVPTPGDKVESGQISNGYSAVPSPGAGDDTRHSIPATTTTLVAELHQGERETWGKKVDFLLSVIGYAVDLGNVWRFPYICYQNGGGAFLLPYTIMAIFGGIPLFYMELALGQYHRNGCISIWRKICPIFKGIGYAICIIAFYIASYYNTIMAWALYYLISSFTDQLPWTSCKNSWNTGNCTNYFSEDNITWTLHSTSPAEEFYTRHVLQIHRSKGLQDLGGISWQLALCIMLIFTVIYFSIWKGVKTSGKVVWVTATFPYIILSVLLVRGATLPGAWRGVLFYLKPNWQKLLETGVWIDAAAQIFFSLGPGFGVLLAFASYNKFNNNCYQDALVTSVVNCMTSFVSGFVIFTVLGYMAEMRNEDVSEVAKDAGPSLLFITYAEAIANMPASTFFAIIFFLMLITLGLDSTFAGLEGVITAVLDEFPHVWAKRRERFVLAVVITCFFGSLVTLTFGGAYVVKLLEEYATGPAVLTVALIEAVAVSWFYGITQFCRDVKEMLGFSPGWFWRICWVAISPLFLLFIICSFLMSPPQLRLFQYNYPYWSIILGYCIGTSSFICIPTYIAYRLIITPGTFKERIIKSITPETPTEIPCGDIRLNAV
Chain of 5-HT7 (h) (P34969 whole entry): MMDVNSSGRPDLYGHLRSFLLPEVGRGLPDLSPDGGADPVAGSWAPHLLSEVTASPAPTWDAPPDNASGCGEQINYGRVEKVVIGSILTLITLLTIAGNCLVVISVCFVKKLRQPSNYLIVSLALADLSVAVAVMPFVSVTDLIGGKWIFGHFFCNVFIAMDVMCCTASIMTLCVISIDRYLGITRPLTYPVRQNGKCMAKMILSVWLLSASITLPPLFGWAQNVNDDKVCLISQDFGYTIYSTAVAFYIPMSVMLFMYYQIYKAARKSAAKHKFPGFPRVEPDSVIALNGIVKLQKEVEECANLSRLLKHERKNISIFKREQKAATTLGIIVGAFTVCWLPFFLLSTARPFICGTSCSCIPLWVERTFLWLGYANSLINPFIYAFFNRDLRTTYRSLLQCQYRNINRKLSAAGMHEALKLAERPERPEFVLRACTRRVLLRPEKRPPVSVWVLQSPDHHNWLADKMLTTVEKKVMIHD
Chain of M3 (h) (P20309 whole entry): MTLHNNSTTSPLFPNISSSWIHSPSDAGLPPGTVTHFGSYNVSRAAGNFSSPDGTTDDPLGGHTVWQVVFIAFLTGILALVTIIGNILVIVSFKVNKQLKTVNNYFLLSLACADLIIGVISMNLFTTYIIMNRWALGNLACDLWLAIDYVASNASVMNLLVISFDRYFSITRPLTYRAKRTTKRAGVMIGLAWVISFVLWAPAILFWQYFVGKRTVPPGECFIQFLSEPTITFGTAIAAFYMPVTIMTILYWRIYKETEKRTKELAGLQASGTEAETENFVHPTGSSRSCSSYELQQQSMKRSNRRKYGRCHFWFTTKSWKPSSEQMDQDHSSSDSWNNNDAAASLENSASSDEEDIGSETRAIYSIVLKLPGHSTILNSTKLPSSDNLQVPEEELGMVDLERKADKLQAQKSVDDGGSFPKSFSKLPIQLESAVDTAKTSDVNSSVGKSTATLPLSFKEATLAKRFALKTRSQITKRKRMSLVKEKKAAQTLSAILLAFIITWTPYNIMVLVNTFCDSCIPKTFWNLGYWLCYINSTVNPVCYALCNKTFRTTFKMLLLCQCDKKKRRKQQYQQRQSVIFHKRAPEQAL

Compound: CCOC(=O)Nc1cc(-c2ccc(C)c(NS(C)(=O)=O)c2)nn2c(C)nnc12 [BSP, ethyl (3-methyl-6-(4-methyl-3-(methylsulfonamido)phenyl)-[1,2,4]triazolo[4,3-b]pyridazin-8-yl)carbamate]
- KD [1]: Weak binding
- Kd [2]: 312 ± 11.2 nM
- N [2]: 1.00 ± 0.003
- TΔS [2]: 2.45 kcal/mol
- ΔG [2]: -8.57 kcal/mol
- ΔH^obs [2]: -6.12 ± 0.021 kcal/mol
- N [3]: 0.95 ± 0.044
- TΔS [3]: -0.83 kcal/mol
- ΔG [3]: -7.02 kcal/mol
- ΔH^obs [3]: -7.85 ± 0.454 kcal/mol
- N [4]: 0.99 ± 0.055
- TΔS [4]: -2.84 kcal/mol
- ΔG [4]: -6.21 kcal/mol
- ΔH^obs [4]: -9.05 ± 0.580 kcal/mol
- N [5]: 0.98 ± 0.003
- TΔS [5]: -3.80 kcal/mol
- ΔG [5]: -10.25 kcal/mol
- ΔH^obs [5]: -14.05 ± 0.095 kcal/mol
- N [6]: 1.09 ± 0.029
- TΔS [6]: 4.06 kcal/mol
- ΔG [6]: -6.67 kcal/mol
- ΔH^obs [6]: -2.61 ± 0.088 kcal/mol
- IC50 [7]: 579 nM
- IC50 [8]: 399 nM
- colony formation [9]: decreased; also recorded: severely inhibited
- inhibition at 10 µM [10]: 7%
- inhibition at 10 µM [11]: 11%
- % Inhibition of Control Specific Binding [12]: -4
- inhibition at 10 µM [13]: 6%
- % Inhibition of Control Specific Binding [14]: -7
- inhibition at 10 µM [15]: 1%
- inhibition at 10 µM [16]: -20%
- inhibition at 10 µM [17]: 17%
- inhibition at 10 µM [18]: -7%
- inhibition at 10 µM [19]: 6%
- inhibition at 10 µM [20]: -4%
- inhibition at 10 µM [21]: -6%
- % Inhibition of Control Specific Binding [22]: -6
- inhibition at 10 µM [23]: 5%
- inhibition at 10 µM [24]: 16%
- inhibition at 10 µM [25]: -15%
- N [26]: 1.00 ± 0.003
- TΔS [26]: 1.34 kcal/mol
- ΔG [26]: -9.25 kcal/mol
- ΔH^obs [26]: -7.90 ± 0.034 kcal/mol
- inhibition at 10 µM [27]: 4%
- inhibition at 10 µM [28]: 5%
- inhibition at 10 µM [29]: 3%
- inhibition at 10 µM [30]: -2%
- inhibition at 10 µM [31]: 7%
- inhibition at 10 µM [32]: -20%
